Laboratory results from patent publication US11041212B2, “ABCA1 downregulation in prostate cancer” (THE CLEVELAND CLINIC FOUNDATION, priority 2013, dated 2021).

Experiments:
Type in all cases: cell-based, human
[1] = tested on: LNCaP cells; test: Cellular [3H]-cholesterol efflux to acceptors in LNCaP cells; conditions: for cholesterol efflux to APOA1: acceptor 10 μg/mL APOA1, 4 hours chase; for cholesterol efflux to HDL: acceptor 100 μg/mL HDL, 4 hours chase
Description: PrEC (Lonza, Walkersville, Md.) was cultured in PrEGM according to the manufacturer's instructions. LNCaP and DU 145 (ATCC, Manassas, Va.) were cultured in RPMI 1640 supplemented with 10% FBS. All three cell lines were obtained directly from the cell banks, and the identities of the cell lines were verified per the cell banks' protocols. Cells were treated with 10 μM T0901317 (Sigma, St. Louis, Mo.) for 24 hours or 5 μM 5-aza-2′-deoxycytidine (Sigma, St. Louis, Mo.) for 7 days, or a combination of the two compounds. ABCA1 promoter (−1132 to +112 relative to the transcription start site) was amplified by PCR and subcloned into the pGL4.20 (Promega, Madison, Wis.). Methylated ABCA1 promoter was in vitro DNA methylated using SssI (NEB, Ipswich, Mass.) and ligated into pGL4.20 prior to transfection. The reporter construct was co-transfected with pGL 4.74 vector into DU 145 cells using Nucleofection (Lonza, Walkersville, Md.). Reporter luciferase activity was measured and normalized to control Renilla luciferase activity for each sample. The mean±SEM from triplicate experiments for each experimental group was plotted for comparisons. The different groups were compared using one way ANOVA with Bonferroni's multiple comparison test. For filipin staining, LNCaP and DU 145 cells were grown on glass coverslips, fixed in 3% paraformaldehyde, and stained with 50 μg/mL filipin (Sigma, St. Louis, Mo.). Images were acquired using QCapturePro software (Qlmaging, Surrey, Canada) at the designated magnifications and fixed aperture and exposure time for both cell lines. Biochemical quantification of intracellular cholesterol was performed as previously described. Robinet et al., J Lipid Res. 51(11):3364-9 (2010). The different groups were compared using one way ANOVA with Bonferroni correction. For analysis of cholesterol efflux, cells were labeled with 0.5 μCi/mL [^3H]-cholesterol in RPMI containing 1% FBS for 16 hours at 37° C. After labeling, cells were chased for 4 hours at 37° C. in RPMI with or without acceptors (10 μg/mL APOA1 or 100 μg/mL HDL). At the end of this chase period, the radioactivity in the medium and cells was determined by liquid scintillation counting, and the percent efflux was calculated as 100×(medium dpm)/(medium dpm+cell dpm). Percent efflux to acceptors was calculated as (percent efflux to acceptor)-(percent efflux to no acceptor). LNCaP treatment groups were compared to the mock treated sample using one way ANOVA with Dunnett's correction. Unpaired t test with Welch's correction was used to compare the T0901317-treated with the mock treated DU 145 cells.

[2] = tested on: LNCaP cells; test: Total cellular cholesterol content in LNCaP cells; conditions: single agent
Description: (§1) PrEC (Lonza, Walkersville, Md.) was cultured in PrEGM according to the manufacturer's instructions. LNCaP and DU 145 (ATCC, Manassas, Va.) were cultured in RPMI 1640 supplemented with 10% FBS. All three cell lines were obtained directly from the cell banks, and the identities of the cell lines were verified per the cell banks' protocols. Cells were treated with 10 μM T0901317 (Sigma, St. Louis, Mo.) for 24 hours or 5 μM 5-aza-2′-deoxycytidine (Sigma, St. Louis, Mo.) for 7 days, or a combination of the two compounds. ABCA1 promoter (−1132 to +112 relative to the transcription start site) was amplified by PCR and subcloned into the pGL4.20 (Promega, Madison, Wis.). Methylated ABCA1 promoter was in vitro DNA methylated using SssI (NEB, Ipswich, Mass.) and ligated into pGL4.20 prior to transfection. […] Reporter luciferase activity was measured and normalized to control Renilla luciferase activity for each sample. […] Biochemical quantification of intracellular cholesterol was performed as previously described. […] At the end of this chase period, the radioactivity in the medium and cells was determined by liquid scintillation counting, and the percent efflux was calculated as 100×(medium dpm)/(medium dpm+cell dpm). Percent efflux to acceptors was calculated as (percent efflux to acceptor)-(percent efflux to no acceptor). […]

[3] = tested on: ABCA1 transcription; test: ABCA1 mRNA expression by realtime RT-PCR in LNCaP cells; conditions: 10 μM T0901317 24 hours, 5 μM 5-aza-2′-deoxycytidine 7 days, or combination, vs mock treated
Description: PrEC (Lonza, Walkersville, Md.) was cultured in PrEGM according to the manufacturer's instructions. LNCaP and DU 145 (ATCC, Manassas, Va.) were cultured in RPMI 1640 supplemented with 10% FBS. All three cell lines were obtained directly from the cell banks, and the identities of the cell lines were verified per the cell banks' protocols. […] Louis, Mo.) for 24 hours or 5 μM 5-aza-2′-deoxycytidine (Sigma, St. Louis, Mo.) for 7 days, or a combination of the two compounds. ABCA1 promoter (−1132 to +112 relative to the transcription start site) was amplified by PCR and subcloned into the pGL4.20 (Promega, Madison, Wis.). Methylated ABCA1 promoter was in vitro DNA methylated using SssI (NEB, Ipswich, Mass.) and ligated into pGL4.20 prior to transfection. The reporter construct was co-transfected with pGL 4.74 vector into DU 145 cells using Nucleofection (Lonza, Walkersville, Md.). Reporter luciferase activity was measured and normalized to control Renilla luciferase activity for each sample. The mean±SEM from triplicate experiments for each experimental group was plotted for comparisons. […] Expression of ABCA1 and GAPDH mRNA was measured by realtime RT-PCR as previously described (Yan et al.). The relative fold change in expression was calculated using the 2^−ΔΔCT method by normalizing to GAPDH mRNA expression in each sample and compared to LNCaP mock treated cells. […]

[4] = tested on: ABCA1 promoter; test: Methylation-specific PCR (MSP) of the ABCA1 promoter in LNCaP cells; conditions: 5 μM for 7 days
Description: Bisulfite sequencing and methylation-specific PCR (MSP) of the ABCA1 promoter was performed as previously described (Yan et al., PLoS ONE. 2011; 6(6):e20628 (2011). See Table 1 for a list of the primers used.

[5] = tested on: DU 145 cells; test: Cellular [3H]-cholesterol efflux to acceptors in DU 145 cells
Description: as §1

[6] = tested on: ABCA1 promoter; test: ABCA1 promoter/luciferase reporter assay in DU 145 cells; conditions: 10 μM, 24 hours
Description: PrEC (Lonza, Walkersville, Md.) was cultured in PrEGM according to the manufacturer's instructions. LNCaP and DU 145 (ATCC, Manassas, Va.) were cultured in RPMI 1640 supplemented with 10% FBS. All three cell lines were obtained directly from the cell banks, and the identities of the cell lines were verified per the cell banks' protocols. Cells were treated with 10 μM T0901317 (Sigma, St. Louis, Mo.) for 24 hours or 5 μM 5-aza-2′-deoxycytidine (Sigma, St. Louis, Mo.) for 7 days, or a combination of the two compounds. ABCA1 promoter (−1132 to +112 relative to the transcription start site) was amplified by PCR and subcloned into the pGL4.20 (Promega, Madison, Wis.). Methylated ABCA1 promoter was in vitro DNA methylated using SssI (NEB, Ipswich, Mass.) and ligated into pGL4.20 prior to transfection. The reporter construct was co-transfected with pGL 4.74 vector into DU 145 cells using Nucleofection (Lonza, Walkersville, Md.). Reporter luciferase activity was measured and normalized to control Renilla luciferase activity for each sample. The mean±SEM from triplicate experiments for each experimental group was plotted for comparisons. The different groups were compared using one way ANOVA with Bonferroni's multiple comparison test.

[7] = tested on: DU 145 cells; test: Total cellular cholesterol content in DU 145 cells; conditions: 10 μM T0901317
Description: as §1

Row | SMILES | cholesterol efflux to APOA1 [1] | cholesterol efflux to HDL [1] | intracellular cholesterol (change vs untreated) [2] | ABCA1 transcription (mRNA expression) [3] | demethylation of ABCA1 promoter [4] | cholesterol efflux to APOA1 ([5]; acceptor 10 μg/mL APOA1, 10 μM T0901317) | cholesterol efflux to HDL ([5]; acceptor 100 μg/mL HDL, 10 μM T0901317) | luciferase reporter activity from methylated ABCA1 promoter ([6]; SssI methylated promoter) | luciferase reporter expression from unmethylated ABCA1 promoter ([6]; unmethylated promoter) | intracellular cholesterol (change vs mock) [7]
1 | Nc1ncn([C@H]2C[C@H](O)[C@@H](CO)O2)c(=O)n1 [5-aza-2′-deoxycytidine] | did not result in robust increases in cholesterol efflux | same overall trend | did not decrease significantly | did not strongly induce ABCA1 transcription | confirmed demethylation of ABCA1 promoter |  |  |  |  | 
2 | O=S(=O)(c1ccccc1)N(CC(F)(F)F)c1ccc(C(O)(C(F)(F)F)C(F)(F)F)cc1 [T0901317] | did not result in robust increases in cholesterol efflux | same overall trend | did not decrease significantly | only modestly induced above baseline |  | significant increase in cholesterol efflux to APOA1 | small, but statistically significant increase in cholesterol efflux to HDL | not induced | significant induction of reporter expression | decreased intracellular cholesterol
